Experimental data reported in US12052991B2, “Substituted pyridinyloxybenzenes and salts thereof and use thereof as herbicidal agents” (Bayer Aktiengesellschaft, priority 2018, dated 2024).

What was measured:
Type in all cases: in vivo
Lolium perenne (LOLPE) = experiment: Herbicidal early post-emergence action (Table A2); conditions: 1900 g/ha; scored visually 9 to 12 days after treatment; 100% = plants have died, 0% = like control plants
Protocol: (§1) Seeds of monocotyledonous and dicotyledonous weed plants were placed in 96-well microtiter plates in quartz sand and grown in a climatized chamber under controlled growth conditions. 5 to 7 days after sowing, the test plants were treated at the cotyledon stage. The compounds according to the invention, formulated in the form of emulsion concentrates (EC), were applied with a water application rate of the equivalent of 2200 liters per hectare. After the test plants had been left to stand in the climatized chamber for 9 to 12 days under optimum growth conditions, the effect of the preparations was scored visually in comparison to untreated controls. For example, 100% activity=the plants have died, 0% activity=like control plants. Tables A1 to A8 below show the effects of selected compounds of the general formula (I) according to Table 1 on various harmful plants and an application rate corresponding to 1900 g/ha, which were obtained by the experimental procedure mentioned above.

[1] = tested on: harmful plants AGSTE, DIPTE, LOLPE, MATCH, POAAN, SETVI, STEME and VERPE; experiment: Herbicidal early post-emergence action, summary of Tables A1-A8; conditions: application rate of 1900 g of active ingredient per hectare; summary in words
Protocol: as §1, with “plants.” for “plants. Tables A1 to A8 below show the effects of selected compounds of the general formula (I) according to Table 1 on various harmful plants and an application rate corresponding to 1900 g/ha, which were obtained by the experimental procedure mentioned above.”
Tables A1 to A8 below show the effects of selected compounds of the general formula (I) according to Table 1 on various harmful plants and an application rate corresponding to 1900 g/ha, which were obtained by the experimental procedure mentioned above.
As the results of Tables A1-A8 show, compounds no.

Agrostis tenuis (AGSTE) = experiment: Herbicidal early post-emergence action (Table A1); conditions: 1900 g/ha; scored visually 9 to 12 days after treatment; 100% = plants have died, 0% = like control plants
Protocol: as §1

Poa annua (POAAN) = experiment: Herbicidal early post-emergence action (Table A3); conditions: 1900 g/ha; scored visually 9 to 12 days after treatment; 100% = plants have died, 0% = like control plants
Protocol: as §1

[2] = tested on: Diplotaxis tenuifolia (DIPTE); experiment: Herbicidal early post-emergence action (Table A5); conditions: 1900 g/ha; scored visually 9 to 12 days after treatment; 100% = plants have died, 0% = like control plants
Protocol: as §1

[3] = tested on: Matricaria chamonilla (MATCH); experiment: Herbicidal early post-emergence action (Table A6); conditions: 1900 g/ha; scored visually 9 to 12 days after treatment; 100% = plants have died, 0% = like control plants
Protocol: as §1

[4] = tested on: wheat (TRZAS, var. Triso); experiment: Pre-emergence crop plant compatibility (Table E1); conditions: dosage 80 g/ha, scored after about 3 weeks, 0% = like control plants
From the text: (§2) Seeds of monocotyledonous and dicotyledonous crop plants were placed in plastic or organic plant pots and covered with soil. The compounds of the invention, formulated in the form of wettable powders (WP) or as emulsion concentrates (EC), were then applied to the surface of the covering soil as aqueous suspension or emulsion with addition of 0.5% additive at a water application rate equivalent to 600 l/ha (converted). After the treatment, the pots were placed in a greenhouse and kept under good growth conditions for the test plants. After about 3 weeks, the effect of the preparations was scored visually in comparison with untreated controls as percentages. For example, 100% activity=the plants have died, 0% activity=like control plants.

[5] = tested on: corn (ZEAMX, var. Aventura); experiment: Pre-emergence crop plant compatibility (Table E1); conditions: dosage 80 g/ha, scored after about 3 weeks, 0% = like control plants
From the text: as §2

[6] = tested on: soybean (GLXMA, var. Sultana); experiment: Pre-emergence crop plant compatibility (Table E1); conditions: dosage 80 g/ha, scored after about 3 weeks, 0% = like control plants
From the text: as §2

Setaria viridis (SETVI) = experiment: Herbicidal early post-emergence action (Table A4); conditions: 1900 g/ha; scored visually 9 to 12 days after treatment; 100% = plants have died, 0% = like control plants
Protocol: as §1

Veronica persica (VERPE) = experiment: Herbicidal early post-emergence action (Table A8); conditions: 1900 g/ha; scored visually 9 to 12 days after treatment; 100% = plants have died, 0% = like control plants
Protocol: as §1

Stellaria media (STEME) = experiment: Herbicidal early post-emergence action (Table A7); conditions: 1900 g/ha; scored visually 9 to 12 days after treatment; 100% = plants have died, 0% = like control plants
Protocol: as §1

| Structure (SMILES) | herbicidal activity against the harmful plants of Tables A1-A8 in early post-emergence treatment [1] | Early post-emergence effect against Agrostis tenuis (AGSTE) (Agrostis tenuis (AGSTE)) [%] | Early post-emergence effect against Poa annua (POAAN) (Poa annua (POAAN)) [%] | Early post-emergence effect against Diplotaxis tenuifolia (DIPTE) [2] [%] | also measured |
| --- | --- | --- | --- | --- | --- |
| Cc1cc(C)c(-c2cc(C(F)F)no2)c(Oc2ccc(Cl)cn2)c1 [Example 1-78] | very good herbicidal activity | 100 | 100 | – | Early post-emergence effect against Lolium perenne (LOLPE) (Lolium perenne (LOLPE)): 80% |
| Fc1cccc(Oc2ncc(C(F)(F)F)cc2Cl)c1-c1cc(C(F)(F)F)on1 [Example 1-5] | very good herbicidal activity | – | – | 80 | – |
| FC(F)(F)c1cc(-c2ccccc2Oc2ccc(Cl)cn2)on1 [Example 1-113] | very good herbicidal activity | 100 | 100 | – | Early post-emergence effect against Matricaria chamonilla (MATCH) [3]: 80% |
| Cc1ccc(Oc2ccccc2-c2cccc(C(F)(F)F)n2)nc1 [Example 1-51] | very good herbicidal activity | – | – | – | Early post-emergence effect against Matricaria chamonilla (MATCH) [3]: 80% |
| Fc1cccc(Oc2ccccn2)c1-c1cc(C(F)F)on1 [Example 1-8] | very good herbicidal activity | 80 | – | 80 | – |
| Cc1cc(-c2ccccc2Oc2ccc(Cl)cn2)ncn1 [Example 1-108] | very good herbicidal activity | 80 | 80 | – | Early post-emergence effect against Matricaria chamonilla (MATCH) [3]: 80% |
| FC(F)c1cc(-c2ccccc2Oc2ncc(Cl)cn2)on1 [US 2016/ 333000 No. 53] | – | – | – | – | Crop plant compatibility in pre-emergence, TRZAS (damage to wheat) [4]: 20%; Crop plant compatibility in pre-emergence, ZEAMX (damage to corn) [5]: 50%; Crop plant compatibility in pre-emergence, GLXMA (damage to soybean) [6]: 80% |
| Fc1cc(Cl)cnc1Oc1ccccc1-c1cc(C(F)(F)F)no1 [Example 1-112] | very good herbicidal activity | 100 | 100 | – | Early post-emergence effect against Matricaria chamonilla (MATCH) [3]: 80% |
| Fc1cccnc1Oc1cccc(F)c1-c1cc(C(F)F)on1 [Example 1-14] | very good herbicidal activity | – | – | 80 | – |
| Fc1cccc(Oc2ncc(Cl)cn2)c1-c1cc(C(F)F)no1 [US 2016/ 333000 No. 144] | – | – | – | – | Crop plant compatibility in pre-emergence, TRZAS (damage to wheat) [4]: 70%; Crop plant compatibility in pre-emergence, ZEAMX (damage to corn) [5]: 30%; Crop plant compatibility in pre-emergence, GLXMA (damage to soybean) [6]: 100% |
| Cc1cc(-c2ccccc2Oc2ncc(Cl)cc2F)ncn1 [Example 1-109] | very good herbicidal activity | 80 | 100 | 80 | – |
| Cc1cc(F)c(-c2cc(C(F)F)no2)c(Oc2ccc(Cl)cn2)c1 [Example 1-88] | very good herbicidal activity | 100 | 100 | – | Early post-emergence effect against Setaria viridis (SETVI) (Setaria viridis (SETVI)): 80% |
| Cn1nc(-c2c(F)cccc2Oc2ncccc2F)cc1C(F)F [Example 1-84] | very good herbicidal activity | – | – | – | Early post-emergence effect against Veronica persica (VERPE) (Veronica persica (VERPE)): 80% |
| Cn1nc(C(F)F)cc1-c1cc(F)ccc1Oc1ccc(Cl)cn1 [Example 1-32] | very good herbicidal activity | 80 | – | 80 | – |
| FC(F)(F)c1cccc(-c2ccccc2Oc2ccc(Cl)cn2)n1 [Example 1-49] | very good herbicidal activity | – | – | – | Early post-emergence effect against Stellaria media (STEME) (Stellaria media (STEME)): 80%; Early post-emergence effect against Setaria viridis (SETVI) (Setaria viridis (SETVI)): 100% |
